Reference: patent US4622312A, “Growth hormone releasing factor analogs” (Hoffmann-La Roche Inc., priority 1984, dated 1986)
No end group written: not given here.

Experiments:
[1] = tested on: rat pituitary cells in tissue culture; experiment: stimulation of growth hormone production in rat pituitary cells in tissue culture (RIA for rat growth hormone); format: cell-based
Description: Biological activity of the synthetic GRF(1-44)NH2 was identical to the natural GRF(1-44)NH2 which was isolated from a human pancreatic tumor of an individual suffering from acromegaly (Salk Institute standard hGRF--NH2 (NL-A-10)). The assay for biological activity, which is based on the ability to stimulate production of growth hormone in rat pituitary cells in tissue culture, was performed in the following manner.
Pituitaries from 30-40 male Sprague-Dawley rats (175 g) were removed aseptically after decapitation. The anterior lobes were collected, washed 3 times in sterile Hepes buffer (0.025M) (pH 7.35) and dispersed at 37° C. in 20-30 ml Hepes buffer (pH 7.35) containing collagenase (4 mg per ml) and Dispase (Protease grade II, 2 mg per ml). After gentle 100-110-min. vortexing and trituration by Pasteur pipette, the dispersed cells were separated by centrifugation (150×g, 4 min) and re-suspended in Hepes buffer containing neuraminidase (8 μg/ml), and 200 µg/ml ethylenedinitrisotetraacetic acid (EDTA) disodium salt pH 7.35, for 10 min. The cells were washed twice with plating medium and plated on multiwell-plates (1.5×10^5 cells per ml) using the following defined medium: F-12/DMEM/(6:3:1) (Gibco: 430-1700/430-1600/320-2591) with 2 g BSA/l., 2.38 g Hepes/1.50 mg PSN antibiotic mixture (Gibco Laboratories). The medium in each well was supplemented either with a sample of the novel GRF peptide or natural GRF(1-44)--NH2 at concentrations ranging from 0.8 to 200 fmol. per ml. of medium. Control wells contained no supplement. Plating was done with this medium added with 2% fetal calf serum to ensure rapid fixation of the cells. On the fourth day the cells were washed twice with the defined medium without fetal calf serum. Finally 900 μl of defined medium was added to each well plus 100 μl of the same medium containing each individual treatment, in triplicate. After 4 hours of incubation the medium was collected and diluted as required to conduct radioimmunoassay (RIAs) for rat growth hormone. […]

[2] = Rivier and Vale et al., Nature 300, 276-278 (1982); cited from earlier work

Compound: CC[C@H](C)[C@H](NC(=O)[C@H](C)NC(=O)[C@H](CC(=O)O)NC(=O)[C@H](C)NC(=O)[C@@H](N)Cc1ccc(O)cc1)C(=O)N[C@@H](Cc1ccccc1)C(=O)N[C@H](C(=O)N[C@@H](CC(N)=O)C(=O)N[C@@H](CO)C(=O)N[C@@H](Cc1ccc(O)cc1)C(=O)N[C@@H](CCCNC(=N)N)C(=O)N[C@@H](CCCCN)C(=O)N[C@H](C(=O)N[C@@H](CC(C)C)C(=O)NCC(=O)N[C@@H](CCC(N)=O)C(=O)N[C@@H](CC(C)C)C(=O)N[C@@H](CO)C(=O)N[C@@H](C)C(=O)N[C@@H](CCCNC(=N)N)C(=O)N[C@@H](CCCCN)C(=O)N[C@@H](CC(C)C)C(=O)N[C@@H](CC(C)C)C(=O)N[C@@H](CCC(N)=O)C(=O)N[C@@H](CC(=O)O)C(=O)N[C@H](C(=O)N[C@@H](CCSC)C(=O)N[C@@H](CO)C(=O)N[C@@H](CCCNC(=N)N)C(=O)N[C@@H](CCC(N)=O)C(=O)N[C@@H](CCC(N)=O)C(=O)NCC(=O)N[C@@H](CCC(=O)O)C(=O)N[C@@H](CO)C(=O)N[C@@H](CC(N)=O)C(=O)N[C@@H](CCC(N)=O)C(=O)N[C@@H](CCC(=O)O)C(=O)N[C@@H](CCCNC(=N)N)C(=O)NCC(=O)N[C@@H](C)C(=O)N[C@@H](CCCNC(=N)N)C(=O)N[C@@H](C)C(=O)N[C@@H](CCCNC(=N)N)C(=O)N[C@@H](CC(C)C)C(N)=O)[C@@H](C)CC)C(C)C)[C@@H](C)O [GRF(1-44)NH2]
- biological activity compared with natural GRF(1-44)NH2 (Salk Institute standard hGRF-NH2 (NL-A-10)) ([1]; synthetic versus natural peptide isolated from a human pancreatic tumor): identical

Compound: GRF(1-29)NH2
- intrinsic activity and potency in vitro [2]: full intrinsic activity and potency

Compound: YADAIFTNSYRKVLAQLSARKLLQDIMSR-NH2 [(Ala^15)-GRF(1-29)NH2, [Ala^15]-hGRF(1-29)-NH2]
- potency relative to GRF(1-29)NH2 (unsubstituted shortened GRF) ([1]; growth hormone release, 4 hours of incubation): 4.1 times
- potency relative to GRF (1-44)NH2 ([1]; on a weight for weight basis, growth hormone release, 4 hours of incubation): 5.1 times
